Experimental data: a compilation of properties of binary mixtures (doi:10.2298/jsc190413047v)

Assay: xn = mol fraction of the nth substance listed
Settings: 100 kPa

CCCC[N+]1(C)CCCC1.O=S(=O)([N-]S(=O)(=O)C(F)(F)F)C(F)(F)F + O=C1CCCO1
Settings	electrical conductivity [S/m]	viscosity [mPa·s]
298.15 K, x2 = 0	0.277	76.7
298.15 K, x2 = 0.1075	0.329	58.5
298.15 K, x2 = 0.2019	0.394	44.4
298.15 K, x2 = 0.3004	0.468	34.2
298.15 K, x2 = 0.3996	0.554	24.5
298.15 K, x2 = 0.5044	0.726	16.91
298.15 K, x2 = 0.5999	0.953	12.03
298.15 K, x2 = 0.7009	1.24	8.13
298.15 K, x2 = 0.7997	1.47	5.31
298.15 K, x2 = 0.8509	1.55	–
298.15 K, x2 = 0.9	1.46	3.32
298.15 K, x2 = 0.9498	1.12	–
303.15 K, x2 = 0	0.338	61.7
303.15 K, x2 = 0.1075	0.381	47.8
303.15 K, x2 = 0.3004	0.545	28.4
303.15 K, x2 = 0.3996	0.654	20.78
303.15 K, x2 = 0.5044	0.818	14.5
303.15 K, x2 = 0.5999	1.08	10.43
303.15 K, x2 = 0.7009	1.37	7.18
303.15 K, x2 = 0.7997	1.63	4.78
303.15 K, x2 = 0.8509	1.72	–
303.15 K, x2 = 0.9	1.59	3.04
303.15 K, x2 = 0.9498	1.22	–
308.15 K, x2 = 0	0.412	50.5
308.15 K, x2 = 0.2019	0.545	30.6
308.15 K, x2 = 0.3996	0.758	17.56
308.15 K, x2 = 0.5044	0.92	12.58
308.15 K, x2 = 0.5999	1.21	9.19
308.15 K, x2 = 0.7009	1.52	6.39
308.15 K, x2 = 0.7997	1.8	4.35
308.15 K, x2 = 0.8509	1.89	–
308.15 K, x2 = 0.9	1.72	2.79
313.15 K, x2 = 0	0.491	41.7
313.15 K, x2 = 0.1075	0.538	32.9
313.15 K, x2 = 0.2019	0.621	26.1
313.15 K, x2 = 0.3004	0.736	20.38
313.15 K, x2 = 0.3996	0.865	15.37
313.15 K, x2 = 0.5044	1.02	11.12
313.15 K, x2 = 0.5999	1.34	8.16
313.15 K, x2 = 0.7997	1.97	3.96
313.15 K, x2 = 0.8509	2.06	–
313.15 K, x2 = 0.9	1.85	2.57
318.15 K, x2 = 0	0.579	34.7
318.15 K, x2 = 0.1075	0.616	27.6
318.15 K, x2 = 0.3004	0.812	17.43
318.15 K, x2 = 0.3996	0.971	13.26
318.15 K, x2 = 0.5044	1.15	9.7
318.15 K, x2 = 0.5999	1.45	7.2
318.15 K, x2 = 0.7009	1.83	5.14
318.15 K, x2 = 0.7997	2.14	3.6
318.15 K, x2 = 0.9	1.99	2.38
323.15 K, x2 = 0	0.672	29.5
323.15 K, x2 = 0.1075	0.713	23.1
323.15 K, x2 = 0.2019	0.785	19.22
323.15 K, x2 = 0.3996	1.08	11.55
323.15 K, x2 = 0.5044	1.28	8.62
323.15 K, x2 = 0.7997	2.31	3.31
323.15 K, x2 = 0.8509	2.4	–
323.15 K, x2 = 0.9	2.12	2.21

O=C1CCCO1 + CCCC[N+]1(C)CCCC1.O=S(=O)([N-]S(=O)(=O)C(F)(F)F)C(F)(F)F
x1 = 1
Settings	electrical conductivity [S/m]	viscosity [mPa·s]
298.15 K	0.001	1.73
303.15 K	0.001	1.63
308.15 K	0.001	1.52
313.15 K	0.001	1.42
318.15 K	0.001	1.35
323.15 K	0.002	1.3
